Reference: patent US20130018109A1, “Skin and hair treatments” (priority 2011, published 2013)

Legend:
migraine headaches = assay: Use of linalool shampoo by individuals suffering from migraines; format: in vivo, human; details: same individual, prescription drug taken before the shampoo use
Description: One individual who had suffered from migraines for several years and who had taken the prescription drug Prozac® with only limited benefits, started using a commercial product, Ivory Shampoo®, with approximately 1% by volume of linalool added. […] Other commercially available shampoos containing little perfume with approximately 1% by volume of linalool added were substituted for the Ivory Shampoo with linalool and the benefit persisted. Another commercially available shampoo that has been used with about 1% by volume of linalool added is Botanical Nutrients® soyflower shampoo containing: water; extracts of geranium maculatum (geranium), Echinacea angustifolia (coneflower), and lavendula angustifolia (lavender); ammonium lauryl sulfate; decyl glucoside; cocoamide MEA; PPG-5-ceteth-10-phosphatel cocoamidopropyl betaine; fragrance; polyquatemium-7; glycerin; panthenol; hydrolyzed soy protein; isostearamidopropyl morpholine lactate; vitamin E; disodium wheat germamido PEG-2 sulfosuccinate; guar hydroxypropyl ammonium chloride; PEG-150 distearate; PEG-30 castor oil; PEG-12 dimethicone; benzophenone-4; disodium EDTA; diazolidinyl urea; methylparaben; and citric acid. Another shampoo that has been used is Bath & Body Works® Bio balancing shampoo.
When this individual stopped using the commercial shampoos containing about 1% linalool, a migraine headache was experienced. […]

mice = details: according to published information; cited from earlier work

Q: With `CNCCC(Oc1ccc(C(F)(F)F)cc1)c1ccccc1` (centres unmarked) [Prozac] as the compound, how does the “prevention of migraine headaches by prescription drug” value (migraine headaches) read?
A: Its value is “had not prevented migraine headaches”.

Q: With `C=C(C)[C@H]1CC=C(C)CC1` [Limonene] as the compound, how does the tumors in mice (mice) read?
A: The tumors in mice was “shown to cause tumors in mice”.
